Type in all cases: cell-based, human
For one assay, the system named is HL-60. Briefly: CellTiter-Glo (CTG) cell proliferation assay, 72 hours. On the procedure: Preparation of Solutions of Test Article: Compounds were plated into black 384-well plates (Corning Inc.) to a final DMSO volume of 0.1% assuming a maximal volume of 50 μL. A 10-point dose response starting at 10 μM with a 1:3 dilution was printed in duplicate by acoustic dispense using the EDC ATS-100 platform.
Cell Proliferation Assays: The effect of Compound 1 on the proliferation/viability of the hematological cell lines (Table 1 Table, Table 2 and Table 3), THLE-2, or PBMCs was assessed after 72 hours incubation using CTG (Promega), according to manufacturer's instructions. Hematological cell lines were dispensed into compound plates by a Multidrop™ Combi Reagent Dispenser (Thermo Scientific, Waltham, Mass.) at a concentration of 0.1 to 0.3×10^6 cells per mL in a 50 μL total volume. THLE-2 cells were seeded out at 1000 cells per well in 50 μL volume and incubated for 72 hours. At 72 hours, 25 μL per well of CTG was dispensed by a Multidrop™ Combi Reagent Dispenser and adenosine triphosphate (ATP) release by viable cells was measured as relative luminescence units after 30 minutes using the Envision platform.
Proliferation was assessed using the CellTitre-Glo® assay. Results for cultures incubated with Compound 1 were normalized to results for control cultures for each cell line. The IC50 for inhibition of cell growth by Compound 1 was determined for each cell line using ActivityBase software.
Cultures of 11 different AML cell lines were incubated 72 hours with Compound 1 at concentrations of 0.5 nM to 10 μM. Proliferation was assessed using the CellTitre-Glo® assay. Results for cultures incubated with Compound 1 were normalized to results for control cultures for each cell line. Inhibition of cell growth was also determined in THLE-2 cells at Compound 1 concentrations of 0.1 nM to 100 μM and in PBMCs at Compound 1 concentrations of 0.5 nM to […]. The Compound 1 therapeutic window was calculated using area under the curve (AUC; Activity Area [Barretina et al, Nature (2012) 483603-607] measurements (in arbitrary units) as determined using GraphPad Prism software for plots of cell proliferation vs concentration and dividing the AUC for the immortalized (but nontumorigenic) human THLE-2 hepatocyte cell line or PBMCs by the AUC for the AML cell line.
(In general: Cellular ATP, detected with luciferase, serves as a proxy for viable cell number.)

The test system of assay [1] is leukemic cells of AML bone marrow samples. The experiment in a line: Ex vivo flow cytometry (ExviTech) assay in AML donor bone marrow samples. The settings on record: for Emax: 100% minus YMin; for depletion of leukemic cells, on average: sensitive patient samples. Here is the method:
(§1) Patient Samples: The study included bone marrow (BM) samples from adult patients over 18 years of age who were diagnosed with AML. Samples were analyzed in two different batches with the first batch containing 10 patients (donors assigned identification codes containing CG1) and the second comprising the remaining 20 donors (assigned identification codes containing CG3). Corresponding clinical data was not available for the second batch of 20 patient samples at the time of writing.
(§2) Experimental Study Design: To evaluate and characterize the ex vivo pharmacology of Compound 1 in malignant cells and normal lymphocytes of bone marrow samples from thirty donors with acute myeloid leukemia using a flow cytometry-based platform (ExviTech) (Bennett, et al Clin Lymphoma Myeloma Leuk 2014 August; 14(4):305-318).
(§3) On Day 1, the donor sample was received. A small part was separated for validation, and the majority was diluted with culture medium (Roswell Park Memorial Institute (RPMI) 1640) and plated into 96-well plates previously prepared with a range of Compound 1 concentrations. The number of live leukemic cells seeded in each well was fixed between 8000 and 32,000, depending on the percentage of leukemic cells for each sample. The plates were incubated for 24, 48, or 96 hours. Antibodies anti-D34, anti-CD117, anti-HLA-DR, anti-CD45, anti-CD14, anti-CD64, anti-CD13, anti-CD11b) or Annexin V were added to identify leukemic cells using a gating strategy based on forward scatter (FSC) or side scatter (SSC) and expression or lack of expression of different surface markers. The monoclonal antibody selection was performed to optimize the identification of leukemic cells in each sample. The aim of this analysis was not the phenotypic characterization but only the identification of these cells. Accordingly, the markers that Euroflow (van Dongen et al, Leukemia 2012 September; 26(9):1908-1975) has designated as the “backbone markers” for AML (CD34, CD45, CD117) and human leukocyte antigen-DR (HLA-DR) were included in the combination. They allowed the identification of the leukemic cells in almost 90% of AML patients. Additional panels, CD34/CD14/CD64/CD45 and CD34/CD11b/CD13/CD45, were also used to complete the identification of the myeloid leukemic population. This allowed for the selection of the two best antibodies for unequivocal identification of the pathological cell population in each particular sample.
(§4) Live leukemic cells were identified by their light scattering properties classified as high, intermediate, or low (eg, FSC^int/hi/SSC^int) in the absence of Annexin V fluorescein isothiocyanate (FITC) staining. Forward scatter/side scatter selection was performed to exclude debris. The average percentage of cell viability on receipt of the sample was greater than 50% (samples were only processed if the viability was greater than 50%). In some AML donor samples, sufficient normal, non-tumoral lymphocyte cells could be counted, and the effect of Compound 1 was measured in this cell population. Non-tumoral lymphocytes were identified by bright expression of CD45, FSC^low/SSC^low and absence of myeloid markers (CD117, CD11b, and CD13).
(§5) Detailed descriptions of methods used have been published previously (Bennett, et al Clin Lymphoma Myeloma Leuk 2014 August; 14(4):305-318). Briefly, BM samples were extracted under sterile conditions in hospitals of origin and were received within 24 hours of extraction. Initial analysis evaluated the number of pathological cells and their viability. Different volumes of sample (1 μL, 3 μL, 5 μL, and 7 μL) were transferred in duplicate into a 96-well plate. To lyse red blood cells, 180 μL of ammonium chloride lysis solution (2 g KHCO3, 16.58 g NH4Cl, 0.074 g disodium ethylenediaminetetraacetic acid ⋅2H2O, and H2O adjusted to […]) was added to each well. Following a 10-minute incubation period at 4° C., each plate was centrifuged for 5 minutes at 1200 rpm, and the supernatant removed. […]
A general note: In flow cytometry, cells or beads pass a laser one at a time.

The subject of assay [2] is normal lymphocytes of AML bone marrow samples. The assay is described as above. Here is the method: as §1, §2, §3, §4, §5
Setting [3] is: HL-60, AUC PBMCs divided by AUC AML cell line.
Where [4] appears, read: HL-60, AUC THLE-2 divided by AUC AML cell line.

“And” between values parts separate entries of the source, which are not always exact repeats. Equal entries are not always repeated. Where two headings read alike, the source gives them in different places.

One may read the Emax as the size of the effect at its maximum, as opposed to the concentration needed. One may read the EC50 as the concentration giving half of the maximal effect. For `O=C1CCC(N2Cc3cc(CNC(=O)C(F)(F)c4ccc(Cl)cc4)ccc3C2=O)C(=O)N1` (stereo not drawn) [Compound 1, 2-(4-chlorophenyl)-N-((2-(2,6-dioxopiperidin-3-yl)-1-oxoisoindolin-5-yl)methyl)-2,2-difluoroacetamide], the “Therapeutic Window Method 1 As Compared with PBMCs” value in the assay with HL-60 (setting [3]) came to 11. Further, the “Therapeutic Window Method 2 As Compared with PBMCs” value in the assay with HL-60 (setting [3]) was found to be 6.1. For the same compound, the “Therapeutic Window Method 1 As Compared with THLE-2 Cells” value in the assay with HL-60 (setting [4]) is 17. Further, the “Therapeutic Window Method 2 As Compared with THLE-2 Cells” value with HL-60 (setting [4]) is 23.2. The compound also had an AUC in the assay on HL-60 (HL-60, Activity Area of proliferation vs concentration, 72 hours, 0.5 nM to 10 μM) of 23.7 arbitrary units. Further, the IC50 with HL-60 (Homo sapiens, HL-60, 72 h, read-out: Proliferation IC50 (mean ± SD)) came to 20 ± 10 nM. Also, the “patient samples sensitive to Compound 1” value in assay [1] (30 fresh AML bone marrow samples) is 26 out of 30. Moreover, the Emax in assay [1] (Homo sapiens, 96 h, Leukemic (LIVE) cells, 96 hours incubation, per AML donor sample, read-out: Emax) was 98%; in assay [1] (Leukemic (LIVE) cells, 24 hours incubation, per AML donor sample), 64.3% and 83.1%; in assay [1] (Leukemic (LIVE) cells, 48 hours incubation, per AML donor sample) it was 99.8%; in assay [1] (Leukemic (LIVE) cells, 96 hours incubation, per AML donor sample) it was 100.0% and 99.9% and 99.6%; in assay [2] (Homo sapiens, Lymphocyte, normal lymphocytes in patient samples where sufficient could be counted, from 24 to 96 hours, read-out: Emax, averaged), 46 to 76%; in assay [2] (Lymphoid (LIVE) cells, 48 hours incubation, per AML donor sample, 100% minus YMin) it was 69.4%. For the same compound, the concentration for a half-maximal effect (EC50) in assay [1] (Homo sapiens, 96 h, sensitive AML patient samples (26 out of 30), across all three time points (24, 48, 96 hours), read-out: EC50 (range)) was 2 to 160 nM; in assay [1] (Homo sapiens, 96 h, sensitive AML patient samples (26 out of 30), across all three time points (24, 48, 96 hours), read-out: mean EC50), 21 nM; in assay [1] (Leukemic (LIVE) cells, 24 hours incubation, per AML donor sample, unit not printed in table (2 to 160 nM), read-out: EC50), 13 nM; in assay [1] (Leukemic (LIVE) cells, 96 hours incubation, per AML donor sample, unit not printed in table (2 to 160 nM), read-out: EC50), 5 nM; in assay [2] (Lymphoid (LIVE) cells, 48 hours incubation, per AML donor sample, unit inferred), 43 nM. In assay [1] (four patient samples categorized as insensitive, at 24 and 48 hours), the “depletion of leukemic blasts” value was at most 68%. For the same compound, the “depletion of leukemic cells, on average” value in assay [1] (by 48 hours) was above 92%; in assay [1] (by 96 hours), above 98%.

Values taken from US11590117B2, “Treatment of a hematologic malignancy with 2-(4-chlorophenyl)-n-((2-(2,6-dioxopiperidin-3-yl)-1-oxoisoindolin-5-yl)methyl)-2,2-difluoroacetamide” (priority 2016, dated 2023).
